Measured values published in PubChem BioAssay AID1963843 (Molecular Pharmacology Branch, DTP, NCI, 2024).

Test system: 616215-338-R-J1-PDC complex spheroid viability
Assay: Anticancer human tumor 616215-338-R-J1-PDC patient-derived colon adenocarcinoma cell line growth inhibition [POLQ]
Conditions: for IC50: curve of first compound; for viability, T/C: stronger effect = lower value; active = viability on the fitted dose curve at most 10% of control; inactive = the rest
In short: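 Three-cell-type spheroids modelling solid tumor plus stroma served as the readout system; POL inhibitors were tested individually and in combination, concentration ranges set by clinical Cmax where known.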

[1] = second compound 0.0316 µM, first compound 0.0316 µM
[2] = second compound 0.0316 µM, first compound 0.1 µM
[3] = second compound 0.0316 µM, first compound 0.316 µM
[4] = second compound 0.0316 µM, first compound 1 µM
[5] = second compound 0.0316 µM, first compound 3.16 µM
[6] = second compound 0.0316 µM, first compound 10 µM
[7] = second compound 0.1 µM, first compound 0.0316 µM
[8] = second compound 0.1 µM, first compound 0.1 µM
[9] = second compound 0.1 µM, first compound 0.316 µM
[10] = second compound 0.1 µM, first compound 1 µM
[11] = second compound 0.1 µM, first compound 3.16 µM
[12] = second compound 0.1 µM, first compound 10 µM
[13] = second compound 0.316 µM, first compound 0.0316 µM
[14] = second compound 0.316 µM, first compound 0.1 µM
[15] = second compound 0.316 µM, first compound 0.316 µM
[16] = second compound 0.316 µM, first compound 1 µM
[17] = second compound 0.316 µM, first compound 3.16 µM
[18] = second compound 0.316 µM, first compound 10 µM
[19] = second compound 1 µM, first compound 0.0316 µM
[20] = second compound 1 µM, first compound 0.1 µM
[21] = second compound 1 µM, first compound 0.316 µM
[22] = second compound 1 µM, first compound 1 µM
[23] = second compound 1 µM, first compound 3.16 µM
[24] = second compound 1 µM, first compound 10 µM
[25] = second compound 3.16 µM, first compound 0.0316 µM
[26] = second compound 3.16 µM, first compound 0.1 µM
[27] = second compound 3.16 µM, first compound 0.316 µM
[28] = second compound 3.16 µM, first compound 1 µM
[29] = second compound 3.16 µM, first compound 3.16 µM
[30] = second compound 3.16 µM, first compound 10 µM
[31] = second compound 10 µM, first compound 0.0316 µM
[32] = second compound 10 µM, first compound 0.1 µM
[33] = second compound 10 µM, first compound 0.316 µM
[34] = second compound 10 µM, first compound 1 µM
[35] = second compound 10 µM, first compound 3.16 µM
[36] = second compound 10 µM, first compound 10 µM
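Also: spheroids exposed to compounds for one week before readout.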
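For viability, T/C in this document: percent viability relative to DMSO vehicle wells taken as 100%.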

C=CC(=O)N1CCN(c2nc(=O)n(-c3c(C)ccnc3C(C)C)c3nc(-c4c(O)cccc4F)c(F)cc23)C(C)C1 (stereo unspecified) + Cc1cccc(N(C)C(=O)C2C(O)CCN2c2nc(C)cc(C(F)(F)F)c2C#N)c1
inactive: viability, T/C [1] 102% | viability, T/C [2] 95.3% | viability, T/C [3] 95.8% | viability, T/C [4] 109% | viability, T/C [5] 100% | viability, T/C [6] 98.3% | viability, T/C [7] 95.6% | viability, T/C [8] 95.3% | viability, T/C [9] 88.2% | viability, T/C [10] 105% | viability, T/C [11] 104% | viability, T/C [12] 90.3% | viability, T/C [13] 93.8% | viability, T/C [14] 99.2% | viability, T/C [15] 99.6% | viability, T/C [16] 104% | viability, T/C [17] 108% | viability, T/C [18] 97% | viability, T/C [19] 96.7% | viability, T/C [20] 86% | viability, T/C [21] 88.1% | viability, T/C [22] 101% | viability, T/C [23] 105% | viability, T/C [24] 86.2% | viability, T/C [25] 96.6% | viability, T/C [26] 122% | viability, T/C [27] 103% | viability, T/C [28] 101% | viability, T/C [29] 97.6% | viability, T/C [30] 91.6% | viability, T/C [31] 105% | viability, T/C [32] 99.6% | viability, T/C [33] 90.9% | viability, T/C [34] 104% | viability, T/C [35] 95.3% | viability, T/C [36] 73%
> 10 µM: IC50 (second compound 0.0316 µM) | IC50 (second compound 0.1 µM) | IC50 (second compound 0.316 µM) | IC50 (second compound 1 µM) | IC50 (second compound 3.16 µM) | IC50 (second compound 10 µM)

CCCS(=O)(=O)Nc1ccc(F)c(C(=O)c2c[nH]c3ncc(-c4ccc(Cl)cc4)cc23)c1F + Cc1cccc(N(C)C(=O)C2C(O)CCN2c2nc(C)cc(C(F)(F)F)c2C#N)c1
5.24 µM: IC50 (second compound 0.316 µM)
5.31 µM: IC50 (second compound 3.16 µM)
5.76 µM: IC50 (second compound 0.0316 µM)
inactive: viability, T/C [1] 114% | viability, T/C [2] 95.5% | viability, T/C [3] 101% | viability, T/C [4] 105% | viability, T/C [5] 89.5% | viability, T/C [6] 13.4% | viability, T/C [7] 115% | viability, T/C [8] 109% | viability, T/C [9] 101% | viability, T/C [10] 108% | viability, T/C [11] 91% | viability, T/C [12] 11.2% | viability, T/C [13] 112% | viability, T/C [14] 107% | viability, T/C [15] 99% | viability, T/C [16] 97.5% | viability, T/C [17] 83.4% | viability, T/C [18] 9.28% | viability, T/C [19] 99.5% | viability, T/C [20] 101% | viability, T/C [21] 104% | viability, T/C [22] 105% | viability, T/C [23] 86.9% | viability, T/C [24] 10.2% | viability, T/C [25] 114% | viability, T/C [26] 98.6% | viability, T/C [27] 99.4% | viability, T/C [28] 101% | viability, T/C [29] 83.2% | viability, T/C [31] 105% | viability, T/C [32] 100% | viability, T/C [33] 92.7% | viability, T/C [34] 98.1% | viability, T/C [35] 65.8%
active: viability, T/C [30] 10% | viability, T/C [36] 7.05%
5.51 µM: IC50 (second compound 1 µM)
4.29 µM: IC50 (second compound 10 µM)
5.71 µM: IC50 (second compound 0.1 µM)

Cn1ncnc1[C@H]1c2n[nH]c(=O)c3cc(F)cc(c23)N[C@@H]1c1ccc(F)cc1 + COC1C(OC(N)=O)C(O)C(Oc2ccc3c(O)c(NC(=O)c4ccc(O)c(CC=C(C)C)c4)c(=O)oc3c2C)OC1(C)C
> 0.1 µM: IC50 (second compound 0.0316 µM) | IC50 (second compound 0.1 µM) | IC50 (second compound 0.316 µM) | IC50 (second compound 1 µM) | IC50 (second compound 3.16 µM) | IC50 (second compound 10 µM)
inactive: viability, T/C (second compound 0.0316 µM, first compound 0.000316 µM) 103% | viability, T/C (second compound 0.0316 µM, first compound 0.001 µM) 107% | viability, T/C (second compound 0.0316 µM, first compound 0.00316 µM) 105% | viability, T/C (second compound 0.0316 µM, first compound 0.01 µM) 107% | viability, T/C [1] 102% | viability, T/C [2] 102% | viability, T/C (second compound 0.1 µM, first compound 0.000316 µM) 97.2% | viability, T/C (second compound 0.1 µM, first compound 0.001 µM) 90.8% | viability, T/C (second compound 0.1 µM, first compound 0.00316 µM) 102% | viability, T/C (second compound 0.1 µM, first compound 0.01 µM) 103% | viability, T/C [7] 101% | viability, T/C [8] 109% | viability, T/C (second compound 0.316 µM, first compound 0.000316 µM) 95.5% | viability, T/C (second compound 0.316 µM, first compound 0.001 µM) 106% | viability, T/C (second compound 0.316 µM, first compound 0.00316 µM) 98.9% | viability, T/C (second compound 0.316 µM, first compound 0.01 µM) 104% | viability, T/C [13] 109% | viability, T/C [14] 95.9% | viability, T/C (second compound 1 µM, first compound 0.000316 µM) 106% | viability, T/C (second compound 1 µM, first compound 0.001 µM) 95.7% | viability, T/C (second compound 1 µM, first compound 0.00316 µM) 108% | viability, T/C (second compound 1 µM, first compound 0.01 µM) 105% | viability, T/C [19] 107% | viability, T/C [20] 104% | viability, T/C (second compound 3.16 µM, first compound 0.000316 µM) 109% | viability, T/C (second compound 3.16 µM, first compound 0.001 µM) 98.5% | viability, T/C (second compound 3.16 µM, first compound 0.00316 µM) 102% | viability, T/C (second compound 3.16 µM, first compound 0.01 µM) 101% | viability, T/C [25] 102% | viability, T/C [26] 105% | viability, T/C (second compound 10 µM, first compound 0.000316 µM) 105% | viability, T/C (second compound 10 µM, first compound 0.001 µM) 101% | viability, T/C (second compound 10 µM, first compound 0.00316 µM) 103% | viability, T/C (second compound 10 µM, first compound 0.01 µM) 117% | viability, T/C [31] 105% | viability, T/C [32] 97.1%
